In PubChem BioAssay (NCI):
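Grown in 96-well plates, cells were treated for 48 hours with each compound at five concentrations. Insufficient inhibition: endpoint recorded as highest concentration tested. The concentration for 50% growth inhibition is given as GI50. TGI is the concentration that stops growth completely.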

How the values were obtained:
Assay in all cases: NCI anticancer screen, dose series, 48 h
NCI-H522 lung = test system: NCI-H522 lung
UACC-257 melanoma = test system: UACC-257 melanoma
NCI-H23 lung = test system: NCI-H23 lung
SF-268 CNS = test system: SF-268 CNS
BT-549 breast = test system: BT-549 breast
SF-539 CNS = test system: SF-539 CNS
T-47D breast = test system: T-47D breast
SNB-19 CNS = test system: SNB-19 CNS
IGROV1 ovarian = test system: IGROV1 ovarian
SK-MEL-5 melanoma = test system: SK-MEL-5 melanoma
CAKI-1 renal = test system: CAKI-1 renal
786-0 renal = test system: 786-0 renal
SR leukemia = test system: SR leukemia
SNB-75 CNS = test system: SNB-75 CNS
KM12 colon = test system: KM12 colon
SW-620 colon = test system: SW-620 colon
TK-10 renal = test system: TK-10 renal
DU-145 prostate = test system: DU-145 prostate
ACHN renal = test system: ACHN renal
K-562 leukemia = test system: K-562 leukemia
SK-MEL-2 melanoma = test system: SK-MEL-2 melanoma
HOP-62 NSCLC = test system: HOP-62 NSCLC
MCF7 breast = test system: MCF7 breast
HCT-116 colon = test system: HCT-116 colon
HCC-2998 colon = test system: HCC-2998 colon
PC-3 prostate = test system: PC-3 prostate
LOX IMVI melanoma = test system: LOX IMVI melanoma
HT29 colon = test system: HT29 colon
SK-OV-3 ovarian = test system: SK-OV-3 ovarian
OVCAR-4 ovarian = test system: OVCAR-4 ovarian
OVCAR-8 ovarian = test system: OVCAR-8 ovarian
A498 renal = test system: A498 renal
UO-31 renal = test system: UO-31 renal
MALME-3M melanoma = test system: MALME-3M melanoma
M14 melanoma = test system: M14 melanoma
COLO 205 colon = test system: COLO 205 colon
HS 578T breast = test system: HS 578T breast
CCRF-CEM leukemia = test system: CCRF-CEM leukemia
A549 NSCLC = test system: A549 NSCLC
MDA-MB-231 breast = test system: MDA-MB-231 breast
HOP-92 NSCLC = test system: HOP-92 NSCLC
MDA-MB-468 breast = test system: MDA-MB-468 breast
HL-60(TB) leukemia = test system: HL-60(TB) leukemia
RPMI-8226 leukemia = test system: RPMI-8226 leukemia
UACC-62 melanoma = test system: UACC-62 melanoma
NCI-H460 lung = test system: NCI-H460 lung
MDA-MB-435 = test system: MDA-MB-435
EKVX NSCLC = test system: EKVX NSCLC
NCI-H226 lung = test system: NCI-H226 lung
OVCAR-3 ovarian = test system: OVCAR-3 ovarian
RXF 393 renal = test system: RXF 393 renal
OVCAR-5 ovarian = test system: OVCAR-5 ovarian
SF-295 CNS = test system: SF-295 CNS
SN12C renal = test system: SN12C renal
SK-MEL-28 melanoma = test system: SK-MEL-28 melanoma
MOLT-4 leukemia = test system: MOLT-4 leukemia
HCT-15 colon = test system: HCT-15 colon
U251 CNS = test system: U251 CNS

`CN(C)c1ccnc(NCCCSC(c2ccccc2)(c2ccccc2)c2ccccc2)c1` was tested, and the GI50 (NCI-H522 lung) was 12 µM, the TGI (NCI-H522 lung) was 26.6 µM and the GI50 (UACC-257 melanoma) was 3.07 µM. For the same molecule, the TGI (UACC-257 melanoma) was 11.6 µM, the GI50 (NCI-H23 lung) was 12.9 µM and the TGI (NCI-H23 lung) was 26.3 µM. The GI50 (SF-268 CNS) was 14.5 µM, the TGI (SF-268 CNS) was 30.5 µM and the GI50 (BT-549 breast) was 11.5 µM. The TGI (BT-549 breast) was 25 µM, the GI50 (SF-539 CNS) was 6.82 µM and the TGI (SF-539 CNS) was 21.9 µM. The GI50 (T-47D breast) was 11.4 µM, the TGI (T-47D breast) was 29 µM and the GI50 (SNB-19 CNS) was 15.9 µM. It also gave a TGI (SNB-19 CNS) of 31.5 µM, a GI50 (IGROV1 ovarian) of 11.4 µM and a TGI (IGROV1 ovarian) of 27.9 µM. It also gave a GI50 (SK-MEL-5 melanoma) of 3.93 µM, a TGI (SK-MEL-5 melanoma) of 14.2 µM and a GI50 (CAKI-1 renal) of 7.48 µM. For the same molecule, the TGI (CAKI-1 renal) was 21 µM, the GI50 (786-0 renal) was 9.86 µM and the TGI (786-0 renal) was 25.8 µM. The GI50 (SR leukemia) was 2.76 µM, the TGI (SR leukemia) was 7.84 µM and the GI50 (SNB-75 CNS) was 11.9 µM. For the same molecule, the TGI (SNB-75 CNS) was 24.3 µM, the GI50 (KM12 colon) was 5.57 µM and the TGI (KM12 colon) was 17.8 µM. For the same molecule, the GI50 (SW-620 colon) was 4.42 µM, the TGI (SW-620 colon) was 16.1 µM and the GI50 (TK-10 renal) was 12.4 µM. It also gave a TGI (TK-10 renal) of 25.4 µM, a GI50 (DU-145 prostate) of 11 µM and a TGI (DU-145 prostate) of 23 µM. It also gave a GI50 (ACHN renal) of 8.67 µM, a TGI (ACHN renal) of 24.8 µM and a GI50 (K-562 leukemia) of 2.88 µM. It also gave a TGI (K-562 leukemia) of 10.4 µM, a GI50 (SK-MEL-2 melanoma) of 16.6 µM and a TGI (SK-MEL-2 melanoma) of 30.7 µM. It also gave a GI50 (HOP-62 NSCLC) of 14.5 µM, a TGI (HOP-62 NSCLC) of 29.2 µM and a GI50 (MCF7 breast) of 3.96 µM. The TGI (MCF7 breast) was 16.6 µM, the GI50 (HCT-116 colon) was 3.97 µM and the TGI (HCT-116 colon) was 17 µM. It also gave a GI50 (HCC-2998 colon) of 2.55 µM, a TGI (HCC-2998 colon) of 7.13 µM and a GI50 (PC-3 prostate) of 4.41 µM. For the same molecule, the TGI (PC-3 prostate) was 16.3 µM, the GI50 (LOX IMVI melanoma) was 2.96 µM and the TGI (LOX IMVI melanoma) was 10.6 µM. It also gave a GI50 (HT29 colon) of 3 µM, a TGI (HT29 colon) of 10.7 µM and a GI50 (SK-OV-3 ovarian) of 13.5 µM. For the same molecule, the TGI (SK-OV-3 ovarian) was 26.8 µM, the GI50 (OVCAR-4 ovarian) was 11.8 µM and the TGI (OVCAR-4 ovarian) was 29.8 µM. The GI50 (OVCAR-8 ovarian) was 10.3 µM, the TGI (OVCAR-8 ovarian) was 28 µM and the GI50 (A498 renal) was 14.9 µM. The TGI (A498 renal) was 29 µM, the GI50 (UO-31 renal) was 5.4 µM and the TGI (UO-31 renal) was 21.1 µM. For the same molecule, the GI50 (MALME-3M melanoma) was 1.55 µM, the TGI (MALME-3M melanoma) was 3.19 µM and the GI50 (M14 melanoma) was 3.81 µM. For the same molecule, the TGI (M14 melanoma) was 13.3 µM, the GI50 (COLO 205 colon) was 1.87 µM and the TGI (COLO 205 colon) was 3.44 µM. It also gave a GI50 (HS 578T breast) of 11.3 µM, a TGI (HS 578T breast) of 35.3 µM and a GI50 (CCRF-CEM leukemia) of 3.94 µM. For the same molecule, the TGI (CCRF-CEM leukemia) was 17 µM, the GI50 (A549 NSCLC) was 7.35 µM and the TGI (A549 NSCLC) was 21.6 µM. For the same molecule, the GI50 (MDA-MB-231 breast) was 5.71 µM, the TGI (MDA-MB-231 breast) was 20.2 µM and the GI50 (HOP-92 NSCLC) was 3.3 µM. The TGI (HOP-92 NSCLC) was 15.8 µM, the GI50 (MDA-MB-468 breast) was 2.01 µM and the TGI (MDA-MB-468 breast) was 5.63 µM. For the same molecule, the GI50 (HL-60(TB) leukemia) was 3.06 µM, the TGI (HL-60(TB) leukemia) was 10.5 µM and the GI50 (RPMI-8226 leukemia) was 3.43 µM. The TGI (RPMI-8226 leukemia) was 12.3 µM, the GI50 (UACC-62 melanoma) was 7.5 µM and the TGI (UACC-62 melanoma) was 21.6 µM. It also gave a GI50 (NCI-H460 lung) of 4.85 µM, a TGI (NCI-H460 lung) of 17.1 µM and a GI50 (MDA-MB-435) of 8.6 µM. For the same molecule, the TGI (MDA-MB-435) was 20.9 µM, the GI50 (EKVX NSCLC) was 14.2 µM and the TGI (EKVX NSCLC) was 29.6 µM. It also gave a GI50 (NCI-H226 lung) of 10.9 µM, a TGI (NCI-H226 lung) of 28.1 µM and a GI50 (OVCAR-3 ovarian) of 7.26 µM. For the same molecule, the TGI (OVCAR-3 ovarian) was 20.2 µM, the GI50 (RXF 393 renal) was 2.58 µM and the TGI (RXF 393 renal) was 9.7 µM. For the same molecule, the GI50 (OVCAR-5 ovarian) was 11.9 µM, the TGI (OVCAR-5 ovarian) was 26 µM and the GI50 (SF-295 CNS) was 11.4 µM. For the same molecule, the TGI (SF-295 CNS) was 26.2 µM, the GI50 (SN12C renal) was 11.1 µM and the TGI (SN12C renal) was 25.8 µM. The GI50 (SK-MEL-28 melanoma) was 1.75 µM, the TGI (SK-MEL-28 melanoma) was 3.74 µM and the GI50 (MOLT-4 leukemia) was 3.62 µM. For the same molecule, the TGI (MOLT-4 leukemia) was 15 µM, the GI50 (HCT-15 colon) was 5.19 µM and the TGI (HCT-15 colon) was 19.6 µM. It also gave a GI50 (U251 CNS) of 7.78 µM and a TGI (U251 CNS) of 21.7 µM.
